Reference: patent US7186840B2, “Quinoline derivatives as anti-inflammatory agents” (Roche Palo Alto LLC, priority 2000, dated 2007)

Legend:
COX I = biological target: T1, COX I (Homo sapiens, UniProt P23219); experiment: Inhibition of COX I in vitro (radiometric assay); type: biochemical; conditions: partially purified enzyme, 10 min preincubation, 20 micromolar [14C]arachidonic acid
T1 construct: made in house
Method: (§1) The COX I and COX II inhibitory activity of compounds of this invention in vitro was determined using partially purified COX I and COX II enzymes, prepared as described in J. Barnett et. al., Biochim Biophys. Acta, 1209, 130–139 (1994).
(§2) COX I and COX II samples were diluted with Tris-HCl buffer (50 mM Tris-HCl, pH 7.9) containing 2 mM EDTA and 10% glycerol and reconstituted by incubating first with 2 mM phenol for 5 minutes and then with 1 micromolar hematin for an additional 5 minutes. 125 μl of the reconstituted COX I or COX II enzyme were preincubated for 10 minutes at room temperature in a shaking water bath with the compounds of the invention dissolved in 2–15 μl of DMSO or the carrier vehicles (control samples). The enzyme reaction was initiated by adding 25 μl of 1-[14 C]arachidonic acid (80,000–100,000 cpm/tube; 20 micromolar final concentration) and the reaction was allowed to continue for an additional 45 seconds. The reaction was terminated by adding 100 μl of 2N HCl and 750 μl water. An aliquot (950 μl) of the reaction mixture was loaded onto a 1 mL C18 Sep-Pak column (J. T. Baker, Phillipsburg, N.J.) which had been previously washed with 2–3 mL methanol and equilibrated with 5–6 mL distilled water. Oxygenated products were quantitatively eluted with 3 mL of acetonitrile/water/acetic acid (50:50:0.1, v/v) and the radioactivity in the eluate determined in a scintillation counter.
(§3) The COX inhibitory activities (expressed as IC50, the concentration causing 50% inhibition of the COX enzyme being assayed) of some exemplary compounds of the invention were: […]

COX II = biological target: T2, COX II (Homo sapiens, UniProt P35354); experiment: Inhibition of COX II in vitro (radiometric assay); type: biochemical; conditions: partially purified enzyme, 10 min preincubation, 20 micromolar [14C]arachidonic acid
T2 construct: made in house
T2 sequence (P35354 18-604): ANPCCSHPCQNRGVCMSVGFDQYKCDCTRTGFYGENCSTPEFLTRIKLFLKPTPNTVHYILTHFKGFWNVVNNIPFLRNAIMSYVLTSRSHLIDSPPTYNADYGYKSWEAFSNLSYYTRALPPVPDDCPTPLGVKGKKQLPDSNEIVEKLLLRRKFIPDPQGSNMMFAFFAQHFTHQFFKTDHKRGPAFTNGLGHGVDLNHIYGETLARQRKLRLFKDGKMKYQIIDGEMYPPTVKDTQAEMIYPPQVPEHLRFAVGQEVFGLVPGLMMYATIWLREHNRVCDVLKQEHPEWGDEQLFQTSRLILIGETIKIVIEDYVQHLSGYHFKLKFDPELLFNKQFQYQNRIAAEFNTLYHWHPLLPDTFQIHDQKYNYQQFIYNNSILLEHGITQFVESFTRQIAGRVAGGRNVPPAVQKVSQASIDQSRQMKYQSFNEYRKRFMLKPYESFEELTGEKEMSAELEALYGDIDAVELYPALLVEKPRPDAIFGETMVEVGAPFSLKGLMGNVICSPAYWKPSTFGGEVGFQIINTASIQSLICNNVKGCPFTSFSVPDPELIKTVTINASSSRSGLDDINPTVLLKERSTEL
Method: as §1, §2, §3

T1 sequence (P23219 24-599): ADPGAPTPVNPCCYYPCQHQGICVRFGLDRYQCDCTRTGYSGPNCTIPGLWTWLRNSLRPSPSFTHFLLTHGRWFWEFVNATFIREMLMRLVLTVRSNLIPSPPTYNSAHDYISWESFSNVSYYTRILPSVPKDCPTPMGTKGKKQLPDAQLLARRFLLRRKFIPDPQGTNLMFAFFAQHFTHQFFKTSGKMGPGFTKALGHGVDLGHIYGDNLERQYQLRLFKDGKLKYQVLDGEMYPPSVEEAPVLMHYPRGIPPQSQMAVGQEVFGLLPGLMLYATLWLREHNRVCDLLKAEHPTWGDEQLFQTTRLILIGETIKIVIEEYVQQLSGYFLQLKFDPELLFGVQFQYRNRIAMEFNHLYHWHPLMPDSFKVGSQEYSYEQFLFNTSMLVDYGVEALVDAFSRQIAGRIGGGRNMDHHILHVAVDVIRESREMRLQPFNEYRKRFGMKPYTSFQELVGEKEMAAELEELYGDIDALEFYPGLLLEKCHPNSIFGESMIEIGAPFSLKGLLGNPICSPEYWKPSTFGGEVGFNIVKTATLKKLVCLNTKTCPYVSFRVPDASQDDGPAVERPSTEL

SMILES | IC50 (COX I) | IC50 (COX II)
COc1ccc2nc(S(C)(=O)=O)ccc2c1Sc1ccc(F)cc1F [Cpd 101, 5-(2,4-Difluoro-phenylsulfanyl)-2-methanesulfonyl-6-methoxy-quinoline] | > 40 µM | < 0.2 µM
COc1ccc2nc(S(C)(=O)=O)ccc2c1Sc1ccccc1Cl [Cpd 104, 5-(2-chloro-phenylsulfanyl)-2-methanesulfonyl-6-methoxy-quinoline] | > 40 µM | < 0.2 µM
COc1ccc2nc(S(C)(=O)=O)ccc2c1Sc1ccc(F)cc1Cl [Cpd 105, 5-(2-chloro-4-fluoro-phenylsulfanyl)-2-methanesulfonyl-6-methoxy-quinoline] | > 40 µM | < 0.2 µM
COc1ccc2nc(S(C)(=O)=O)ccc2c1Sc1ccc(Br)cc1 [Cpd 106, 5-(4-bromo-phenylsulfanyl)-2-methanesulfonyl-6-methoxy-quinoline] | > 40 µM | < 0.3 µM
COc1ccc2nc(S(C)(=O)=O)ccc2c1Sc1ccc(Cl)cc1Cl [Cpd 107, 5-(2,4-dichloro-phenylsulfanyl)-2-methanesulfonyl-6-methoxy-quinoline] | > 40 µM | < 0.3 µM
